The source of these data is ChEMBL document CHEMBL5303766, “Data for DCP probe FHT-2344” (2022).

For assay [1], the target named is Membrane-associated tyrosine- and threonine-specific cdc2-inhibitory kinase (Homo sapiens) (UniProt Q99640). Nature of the assay: PKMYT1 SGC Tm panel (DSF). The conditions noted are these: Compound concentration 10.0 uM.
Assay [2] addresses T1, Mitogen-activated protein kinase kinase kinase 5 (Homo sapiens) (UniProt Q99683).
T1 sequence (whole entry): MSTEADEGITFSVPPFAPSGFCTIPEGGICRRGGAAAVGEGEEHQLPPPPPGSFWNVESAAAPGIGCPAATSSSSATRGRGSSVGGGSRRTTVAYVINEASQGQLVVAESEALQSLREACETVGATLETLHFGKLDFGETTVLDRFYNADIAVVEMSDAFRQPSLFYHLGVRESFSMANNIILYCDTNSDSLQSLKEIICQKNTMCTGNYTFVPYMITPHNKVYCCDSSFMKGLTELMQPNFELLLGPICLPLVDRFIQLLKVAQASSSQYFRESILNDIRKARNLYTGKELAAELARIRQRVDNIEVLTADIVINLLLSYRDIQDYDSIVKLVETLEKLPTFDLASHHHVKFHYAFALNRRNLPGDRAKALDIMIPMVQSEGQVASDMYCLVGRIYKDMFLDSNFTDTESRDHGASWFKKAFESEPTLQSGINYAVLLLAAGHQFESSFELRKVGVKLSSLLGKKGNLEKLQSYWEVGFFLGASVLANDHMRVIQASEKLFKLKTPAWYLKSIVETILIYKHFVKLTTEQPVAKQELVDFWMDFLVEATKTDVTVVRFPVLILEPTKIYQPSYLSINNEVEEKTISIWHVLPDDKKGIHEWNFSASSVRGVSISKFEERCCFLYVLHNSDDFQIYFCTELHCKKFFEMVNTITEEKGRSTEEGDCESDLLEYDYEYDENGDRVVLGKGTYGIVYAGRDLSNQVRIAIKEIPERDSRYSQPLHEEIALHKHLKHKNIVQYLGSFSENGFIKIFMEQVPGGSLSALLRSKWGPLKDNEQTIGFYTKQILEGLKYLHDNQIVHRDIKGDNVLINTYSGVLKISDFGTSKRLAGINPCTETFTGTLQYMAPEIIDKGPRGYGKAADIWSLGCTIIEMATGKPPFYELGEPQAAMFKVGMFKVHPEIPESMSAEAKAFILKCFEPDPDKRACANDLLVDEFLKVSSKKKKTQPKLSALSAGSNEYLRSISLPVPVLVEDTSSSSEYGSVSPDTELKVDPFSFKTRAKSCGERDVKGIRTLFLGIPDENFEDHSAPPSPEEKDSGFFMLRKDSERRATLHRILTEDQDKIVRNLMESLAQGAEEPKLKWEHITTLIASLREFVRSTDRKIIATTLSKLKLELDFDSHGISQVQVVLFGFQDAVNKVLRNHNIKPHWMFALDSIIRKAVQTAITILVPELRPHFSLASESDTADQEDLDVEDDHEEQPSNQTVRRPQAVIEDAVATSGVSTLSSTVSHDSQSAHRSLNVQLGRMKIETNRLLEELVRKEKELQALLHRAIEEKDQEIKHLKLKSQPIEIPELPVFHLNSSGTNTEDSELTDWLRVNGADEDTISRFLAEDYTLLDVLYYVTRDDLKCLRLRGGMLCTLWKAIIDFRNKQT
Put plainly: MAP3K5 SGC Tm panel (DSF). The conditions noted are these: for ΔTm: Compound concentration 10.0 uM.

For assay [3], the target named is T2, Mitogen-activated protein kinase 15 (Homo sapiens) (UniProt Q8TD08).
T2 sequence (whole entry): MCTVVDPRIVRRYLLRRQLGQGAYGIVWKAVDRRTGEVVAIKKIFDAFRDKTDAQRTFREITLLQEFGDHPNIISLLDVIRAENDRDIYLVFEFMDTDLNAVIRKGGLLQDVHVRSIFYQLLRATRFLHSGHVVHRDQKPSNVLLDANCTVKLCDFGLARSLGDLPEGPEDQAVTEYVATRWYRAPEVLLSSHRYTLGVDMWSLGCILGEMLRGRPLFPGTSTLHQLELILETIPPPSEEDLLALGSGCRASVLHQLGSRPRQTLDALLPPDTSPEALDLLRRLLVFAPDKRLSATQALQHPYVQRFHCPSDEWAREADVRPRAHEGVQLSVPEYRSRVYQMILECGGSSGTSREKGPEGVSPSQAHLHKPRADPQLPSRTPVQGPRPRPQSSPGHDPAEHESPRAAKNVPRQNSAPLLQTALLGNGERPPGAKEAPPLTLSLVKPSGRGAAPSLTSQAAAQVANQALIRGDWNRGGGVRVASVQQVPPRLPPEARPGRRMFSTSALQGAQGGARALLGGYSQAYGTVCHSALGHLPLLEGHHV
Put plainly: MAPK15 SGC Tm panel (DSF). The conditions noted are these: for ΔTm: Compound concentration 10.0 uM.

For assay [4], the target named is Dual specificity protein kinase CLK3 (Homo sapiens) (UniProt P49761). Nature of the assay: CLK3 SGC Tm panel (DSF). Conditions: for ΔTm: Compound concentration 10.0 uM.
For assay [5], the target named is Sigma intracellular receptor 2 (Homo sapiens) (UniProt Q5BJF2). The conditions noted are these: Compound concentration 10.0 uM.
Assay [6] concerns the target T3, Serine/threonine-protein kinase haspin (Homo sapiens) (UniProt Q8TF76).
T3 sequence (whole entry): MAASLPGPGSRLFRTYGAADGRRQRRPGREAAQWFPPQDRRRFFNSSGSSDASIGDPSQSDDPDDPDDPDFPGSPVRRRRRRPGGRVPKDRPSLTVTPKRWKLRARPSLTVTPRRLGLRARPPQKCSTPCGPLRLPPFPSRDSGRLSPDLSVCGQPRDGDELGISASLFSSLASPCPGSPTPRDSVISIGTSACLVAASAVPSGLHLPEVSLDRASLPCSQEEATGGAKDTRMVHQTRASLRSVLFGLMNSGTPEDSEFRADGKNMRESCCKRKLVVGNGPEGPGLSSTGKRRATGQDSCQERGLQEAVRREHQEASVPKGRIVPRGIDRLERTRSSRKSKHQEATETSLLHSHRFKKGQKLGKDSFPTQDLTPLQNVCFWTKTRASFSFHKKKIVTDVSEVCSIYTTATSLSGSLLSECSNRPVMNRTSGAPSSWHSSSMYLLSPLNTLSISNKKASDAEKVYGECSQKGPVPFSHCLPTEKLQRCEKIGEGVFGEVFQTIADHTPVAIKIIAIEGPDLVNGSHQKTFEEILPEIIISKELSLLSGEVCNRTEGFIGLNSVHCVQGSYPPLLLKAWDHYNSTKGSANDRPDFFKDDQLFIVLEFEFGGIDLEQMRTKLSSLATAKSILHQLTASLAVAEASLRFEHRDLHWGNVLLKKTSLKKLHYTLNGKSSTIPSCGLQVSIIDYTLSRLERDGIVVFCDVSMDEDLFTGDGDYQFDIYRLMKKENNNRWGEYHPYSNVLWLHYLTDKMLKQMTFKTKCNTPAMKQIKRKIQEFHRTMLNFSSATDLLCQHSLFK
Nature of the assay: GSG2 SGC Tm panel (DSF). Conditions: for ΔTm: Compound concentration 10.0 uM.

Molecules are shown by their SMILES.

Sequence of Dual specificity protein kinase CLK3 (Homo sapiens) (P49761 whole entry, looked up): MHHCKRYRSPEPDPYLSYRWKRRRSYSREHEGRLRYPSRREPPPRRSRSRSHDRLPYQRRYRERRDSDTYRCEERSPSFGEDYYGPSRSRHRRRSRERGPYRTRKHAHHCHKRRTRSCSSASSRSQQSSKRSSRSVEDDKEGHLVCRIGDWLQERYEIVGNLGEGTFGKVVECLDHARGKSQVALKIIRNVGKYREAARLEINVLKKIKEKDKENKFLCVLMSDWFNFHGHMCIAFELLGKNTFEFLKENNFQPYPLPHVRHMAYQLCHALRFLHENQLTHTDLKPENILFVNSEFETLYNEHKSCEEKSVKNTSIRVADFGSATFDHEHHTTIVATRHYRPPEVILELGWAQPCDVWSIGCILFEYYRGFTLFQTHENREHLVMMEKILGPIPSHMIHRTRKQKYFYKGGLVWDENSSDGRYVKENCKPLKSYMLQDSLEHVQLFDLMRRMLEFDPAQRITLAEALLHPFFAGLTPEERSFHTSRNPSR
Sequence of Membrane-associated tyrosine- and threonine-specific cdc2-inhibitory kinase (Homo sapiens) (Q99640 whole entry): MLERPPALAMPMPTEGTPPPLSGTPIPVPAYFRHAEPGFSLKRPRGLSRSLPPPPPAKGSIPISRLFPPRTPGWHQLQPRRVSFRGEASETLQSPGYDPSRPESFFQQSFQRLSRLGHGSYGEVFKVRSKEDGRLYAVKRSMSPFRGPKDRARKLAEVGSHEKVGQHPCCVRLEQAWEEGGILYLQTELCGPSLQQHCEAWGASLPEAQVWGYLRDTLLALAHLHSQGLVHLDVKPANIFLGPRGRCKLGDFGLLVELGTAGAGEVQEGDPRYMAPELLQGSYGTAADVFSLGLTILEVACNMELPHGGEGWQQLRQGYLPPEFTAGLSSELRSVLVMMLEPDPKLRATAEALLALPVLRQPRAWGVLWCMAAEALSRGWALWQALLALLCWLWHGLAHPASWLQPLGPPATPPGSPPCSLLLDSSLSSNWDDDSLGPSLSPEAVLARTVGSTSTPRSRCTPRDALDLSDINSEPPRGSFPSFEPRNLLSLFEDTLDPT
Sequence of Sigma intracellular receptor 2 (Homo sapiens) (Q5BJF2 whole entry): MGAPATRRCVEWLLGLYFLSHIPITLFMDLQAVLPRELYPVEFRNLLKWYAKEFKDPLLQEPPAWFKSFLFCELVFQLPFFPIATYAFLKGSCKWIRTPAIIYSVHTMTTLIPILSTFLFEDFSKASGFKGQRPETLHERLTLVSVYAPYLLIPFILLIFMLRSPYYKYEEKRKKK

On to `COC[C@H](NC(=O)c1ccn(S(C)(=O)=O)c1)C(=O)Nc1nc(-c2cccc(-c3ccn(C)n3)c2)cs1`, for which the ΔTm was -0.638 in assay [1]; 1.14 in assay [2]; 0.94 in assay [3]; -0.362 in assay [4]; -0.207 in assay [6]. In addition, the delta Tm Staurosporine positive control in assay [2] is 18.1; in assay [3], 15; in assay [4], 4.89; in assay [6], 7.11. For the same molecule, in assay [5], the inhibition is 5.91%.

As for `C[C@H](NC(=O)c1cn(C2(C#N)CC2)cn1)C(=O)Nc1nc(-c2cccc(-c3ccn(C)n3)c2)cs1`, the ΔTm in assay [1] was -0.216; in assay [2], 1.17; in assay [3] it was 1.05; in assay [4], -0.347; in assay [6], -1.11. The delta Tm Staurosporine positive control in assay [2] came to 18.1; in assay [3], 15; in assay [4], 4.89; in assay [6], 7.11. Also, the inhibition in assay [5] is 2.43%.
